Test results published in patent publication US11279733B2, “Peptide antibiotics” (priority 2017, dated 2022).
Converted amounts (≈) assume the structure as drawn. Where two headings read alike, the source gives them in different places. Positions of bridges follow the written chain, without caps; N, C: chain ends. Non-standard residues stand in square brackets, D forms with d. Residues, ends and D or L forms follow the SMILES beside them. *: point of attachment. Decanoyl(3R-OH) = CCCCCCC[C@@H](O)CC(=O)*; dPhe(4-NH2) = Nc1ccc(C[C@@H](N)C(=O)O)cc1; 2Nal = N[C@@H](Cc1ccc2ccccc2c1)C(=O)O; dDab = NCC[C@@H](N)C(=O)O; Heptanoyl = CCCCCCC(=O)*; dDap = NC[C@@H](N)C(=O)O; Dab = NCC[C@H](N)C(=O)O

How the values were obtained:
[1] = test system: S. aureus ATCC 25923, MSSA; conditions: ATCC 25923
Procedure, shortened: (§1)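 Mid-log cultures grown in Mueller Hinton broth at 37° C were tested by 2-fold broth microdilution at 5×10^5 CFU/mL final. Compounds were dissolved in water and tested over a final range of 32 to 0.015 μg/mL.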

[2] = test system: K. pneumoniae GN_102 PmxR; conditions: GN 102 PmxR
Procedure, shortened: as §1

[3] = test system: K. pneumoniae ATCC BAA-2146, NDM-1 pos; conditions: ATCC BAA-2146
Procedure, shortened: as §1

A. baumannii GN_093 PmxR = conditions: GN 093 PmxR
Procedure, shortened: as §1

[4] = test system: P. aeruginosa GN_043, PmxR
Procedure, shortened: as §1

K. pneumoniae ATCC 13883 = conditions: ATCC 13883
Procedure, shortened: as §1

[5] = test system: K. pneumoniae ATCC 700603, MDR; conditions: ATCC 700603
Procedure, shortened: as §1

[6] = test system: P. aeruginosa GN_105, PmxR; conditions: GN 105, PmxR
Procedure, shortened: as §1

A. baumannii ATCC 19606 = conditions: ATCC 19606
Procedure, shortened: as §1

[7] = test system: K. pneumoniae GN_106, PmxR; conditions: GN 106, PmxR
Procedure, shortened: as §1

E. coli ATCC 25922 = conditions: ATCC 25922
Procedure, shortened: as §1

P. aeruginosa ATCC 27853 = conditions: ATCC 27853
Procedure, shortened: as §1

in vitro = conditions: human
Procedure, shortened: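 Fluorescence read-out (excitation 560, emission 590) after a 2 h, 37 °C incubation with 5 μM resazurin, following 24 h compound treatment of cells plated at 4000 per well. CC50 values come from fitting dose–response curves of growth inhibition.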

Row | Structure (SMILES) | MIC S. aureus ATCC 25923, MSSA [1] | MIC K. pneumoniae GN_102 PmxR [2] | MIC K. pneumoniae ATCC BAA-2146, NDM-1 pos [3] | MIC A. baumannii GN_093 PmxR (A. baumannii GN_093 PmxR) | MIC P. aeruginosa GN_043, PmxR ([4]; polymyxin-resistant) | MIC K. pneumoniae ATCC 13883 (K. pneumoniae ATCC 13883) | MIC K. pneumoniae ATCC 700603, MDR [5] | MIC P. aeruginosa GN_105, PmxR [6] | MIC A. baumannii ATCC 19606 (A. baumannii ATCC 19606) | MIC K. pneumoniae GN_106, PmxR [7] | MIC E. coli ATCC 25922 (E. coli ATCC 25922) | MIC P. aeruginosa ATCC 27853 (P. aeruginosa ATCC 27853) | CC50 at 24 h (in vitro) | MIC P. aeruginosa GN_043, PmxR ([4]; P. aeruginosa GN_043, PmxR)
1 | CCCCCCC[C@@H](O)CC(=O)N[C@H](CCN)C(=O)N[C@H]1CCNC(=O)[C@H](Cc2c[nH]c3ccccc23)NC(=O)[C@H](CCN)NC(=O)[C@H](CCN)NC(=O)[C@H](Cc2ccc3ccccc3c2)NC(=O)[C@@H](Cc2ccccc2)NC(=O)[C@H](CCN)NC1=O [compound 8832, nC10-3(R)OH-D-Dab-cyc[L-Dab-L-Dab-D-Phe-L-2-NaphthylAla-L-Dab-L-Dab-L-Trp]] ({Decanoyl(3R-OH)}-[dDab][Dab][Dab][dF][2Nal][Dab][Dab]W; lactam 2-C) | 4 µg/mL (≈ 3.33 µM) | 16 µg/mL (≈ 13.3 µM) | 8 µg/mL (≈ 6.66 µM) | 16 µg/mL (≈ 13.3 µM) | 4 µg/mL (≈ 3.33 µM) | 16 µg/mL (≈ 13.3 µM) | 8 µg/mL (≈ 6.66 µM) | 8 µg/mL (≈ 6.66 µM) | 8 µg/mL (≈ 6.66 µM) | 8 µg/mL (≈ 6.66 µM) | 8 µg/mL (≈ 6.66 µM) | 4 µg/mL (≈ 3.33 µM) | 26 µM | –
2 | CCCCCCC[C@@H](O)CC(=O)NCC(=O)N[C@H]1CCNC(=O)[C@H](CC(C)C)NC(=O)[C@H](CCN)NC(=O)[C@H](CCN)NC(=O)[C@H](Cc2ccccc2)NC(=O)[C@@H](CC(C)C)NC(=O)[C@H](CCN)NC1=O [compound 6431, 3(R)OH-nC9CO-Gly-cyc[L-Dab-L-Dab-D-Leu-L-Phe-L-Dab-L-Dab-L-Leu]] ({Decanoyl(3R-OH)}-G[Dab][Dab][dL]F[Dab][Dab]L; lactam 2-C) | >32 µg/mL | 2 µg/mL (≈ 2 µM) | 8 µg/mL (≈ 7.99 µM) | 32 µg/mL (≈ 32 µM) | – | 8 µg/mL (≈ 7.99 µM) | 8 µg/mL (≈ 7.99 µM) | 4 µg/mL (≈ 3.99 µM) | 32 µg/mL (≈ 32 µM) | 4 µg/mL (≈ 3.99 µM) | 16 µg/mL (≈ 16 µM) | 8 µg/mL (≈ 7.99 µM) | > 300 µM | 8 µg/mL (≈ 7.99 µM)
3 | CCCCCCC[C@@H](O)CC(=O)N[C@H](Cc1ccc(N)cc1)C(=O)N[C@H]1CCNC(=O)[C@H](CC(C)C)NC(=O)[C@H](CCN)NC(=O)[C@H](CCN)NC(=O)[C@H](Cc2ccccc2)NC(=O)[C@@H](CC(C)C)NC(=O)[C@H](CCN)NC1=O [compound 6429, 3(R)OH-nC9CO-D-4NH2Phe-cyc[L-Dab-L-Dab-D-Leu-L-Phe-L-Dab-L-Dab-L-Leu]] ({Decanoyl(3R-OH)}-[dPhe(4-NH2)][Dab][Dab][dL]F[Dab][Dab]L; lactam 2-C) | >32 µg/mL | 8 µg/mL (≈ 7.23 µM) | 16 µg/mL (≈ 14.5 µM) | >32 µg/mL | – | 16 µg/mL (≈ 14.5 µM) | 8 µg/mL (≈ 7.23 µM) | 32 µg/mL (≈ 28.9 µM) | 32 µg/mL (≈ 28.9 µM) | 8 µg/mL (≈ 7.23 µM) | 16 µg/mL (≈ 14.5 µM) | 32 µg/mL (≈ 28.9 µM) | > 300 µM | 16 µg/mL (≈ 14.5 µM)
4 | CCCCCCC(=O)N[C@H](CN)C(=O)N[C@H]1CCNC(=O)[C@H](CC(C)C)NC(=O)[C@H](CCN)NC(=O)[C@H](CCN)NC(=O)[C@H](CC(C)C)NC(=O)[C@@H](Cc2ccccc2)NC(=O)[C@H](CCN)NC1=O [compound 9190, nC6CO-D-Dap-cyc[L-Dab-L-Dab-D-Phe-L-Leu-L-Dab-L-Dab-L-Leu]] (Heptanoyl-[dDap][Dab][Dab][dF]L[Dab][Dab]L; lactam 2-C) | >32 µg/mL | 32 µg/mL (≈ 32.9 µM) | 16 µg/mL (≈ 16.5 µM) | >32 µg/mL | – | 16 µg/mL (≈ 16.5 µM) | 16 µg/mL (≈ 16.5 µM) | 8 µg/mL (≈ 8.23 µM) | >32 µg/mL | >32 µg/mL | 8 µg/mL (≈ 8.23 µM) | 2 µg/mL (≈ 2.06 µM) | > 300 µM | 4 µg/mL (≈ 4.11 µM)
